Source: patent US20220168384A1, “Anti-Bacterial Combination Therapy” (McMaster University, priority 2019, published 2022)
Entries after “also recorded” stand apart in the source; their conditions may differ. Read-outs that look alike come from different tables or passages of the source.

Columns and labels:
P. aeruginosa PA14 [1] = assay: Dose response and checkerboard assays against PA14; type: cell-based, Pseudomonas aeruginosa; conditions: for synergy with DSX: checkerboard of DSX with antibiotic; for one-eighth of MIC against PA14 (test concentration): Pseudomonas aeruginosa, concentration used in clinical isolate testing, read-out: ⅛^th the MIC of PA14
Procedure: Checkerboard assays were set-up using Nunc 96-well plates in an 8-well by 8-well format. Two columns were allocated for vehicle controls and two columns for sterility controls. Vehicle controls contained 2 μL DMSO plus 2 μL DFP solvent for checkerboards with TS and DFP or 4 μL DMSO for TS and DSX, in 146 μL of 10:90 medium or 10% serum inoculated with PA14 or PAO1-KP as described in Growth Curves. Sterile controls contained the same components in 10:90 medium or 10% serum, without cells. Serial dilutions of TS—with 17 μg/mL being the highest final concentration—were added along the y axis of the checkerboard (increasing concentration from bottom to top) whereas serial dilutions of DFP or DSX—with 512 μg/mL being the highest final concentration—were added along the x axis (increasing concentration from left to right). The final volume of each well was 150 μL and each checkerboard was repeated at least three times. Plates were incubated and the final OD600 determined as detailed above.
Culture conditions, growth assays, dose response and checkerboard assays using P. aeruginosa PA14 were performed as described in Example 1. Briefly, overnight cultures were grown in LB for 16 h, 37° C., 200 rpm then subcultured (1:500 dilution) into 10:90 for 6 h. Subcultures were standardized to OD600 of 0.10 and diluted 1:500 in fresh 10:90 before use. For the dose response assay, serial dilutions of compounds were added at 75 times the final concentration and diluted with 10:90 with cells to reach the desired final concentration. This was done in triplicate for technical replicates. Vehicle and sterile controls were included. The checkerboard assay was done similarly to the dose response assay but in an 8×8 format in a 96-well Nunc plate, with concentration of one drug increasing along the y-axis and the other along the x-axis. Sterility and vehicle controls were included with two columns allocated for each control. At least three biological replicates were repeated for the dose response and checkerboard assays.

P. aeruginosa PA14 [2] = assay: Thiopeptide + DSX checkerboard and dose-response assays; type: cell-based, Pseudomonas aeruginosa; conditions: thiopeptide + DSX checkerboard, 10:90
Procedure: (§1) Culture conditions, checkerboard assays using P. aeruginosa PA14 and dose-response assays were performed as described in Example 1. In addition to TS, other thiopeptides tested were siomycin A (SM), thiocillin I (TC), micrococcin P1 (MC), nosiheptide (NH), berninamycin A (BER), and geninthiocin A (GEN). For dose response assays of the combinations conducted in 10:90, DSX concentration was constant at 64 μg/mL.

[3] = Qualitative assay for antibiotic-Fe3+ coloured complexes; type: physicochemical; conditions: stock antibiotic + FeCl3 final 10 μM; room temperature 1 h
Procedure: […]. Binding of iron by a compound causes spectral shifts that can detected visually. Five μL of stock concentration antibiotic was added to 5 μL of FeCl3 to a final FeCl3 concentration of 10 μM and incubated at room temperature for one hour. Negative controls without iron are indicated by a negative sign and droplets with FeCl3 are indicated with a positive sign; vehicle controls with Milli-Q H2O and DMSO were included.
Compounds were arrayed in Nunc 96 microwell plates. Vehicle controls contained Milli-Q H2O with 1:75 dilution of each compound at a final concentration of […]. The experimental set-up contained the same components as the vehicle control, with the addition of […] FeCl3. The final volume in each well was 150 μL. The plate was incubated at room temperature for one hour and absorption spectra from 300 nm to 700 nm was read in 2 nm increments (Multiskan Go—Thermo Fisher Scientific). […]

[4] = Chrome azurol S (CAS) plate assay; type: physicochemical; conditions: 10 μL of 2 mg/mL; room temperature 1 h
P. aeruginosa PA14 [5] = assay: Checkerboards pinned to LB agar (bactericidal activity); type: cell-based, Pseudomonas aeruginosa; conditions: overnight 37° C.
Procedure: Checkerboards were pinned to LB agar plates using a sterile 96 pin tool. Plates were incubated overnight at 37° C. Independent experiments were conducted 3 times and a representative plate is shown.

[6] = UV-Vis absorption spectra assay for iron chelation; type: physicochemical; conditions: 300 μM compound and FeCl3; 300-700 nm; 1 h
Procedure: Equimolar concentrations of compound and FeCl3 were added in deionized H2O to a final concentration of 300 μM and a spectrum of wavelengths from 300 nm to 700 nm read after 1 h incubation at room temperature. The black dashed line is the spectrum of the compound in the absence of iron. The black solid line is the spectrum after the addition of iron. […] Chloramphenicol and ampicillin were used as negative controls. Each assay was performed at least 3 times and averaged values are shown.
Compounds were arrayed in Nunc 96 microwell plates. Vehicle controls contained Milli-Q H2O with 1:75 dilution of each compound at a final concentration of […]. The experimental set-up contained the same components as the vehicle control, with the addition of […] FeCl3. The final volume in each well was 150 μL. The plate was incubated at room temperature for one hour and absorption spectra from 300 nm to 700 nm was read in 2 nm increments (Multiskan Go—Thermo Fisher Scientific).

[7] = test system: P. aeruginosa clinical isolates; assay: Clinical isolates testing, P. aeruginosa; type: cell-based, Pseudomonas aeruginosa; conditions: TS 8.3 and DSX 32 μg/mL
Procedure: Clinical isolates of P. aeruginosa and A. baumannii were inoculated from −80° C. stocks into 200 μL LB broth and grown with shaking at 200 rpm, 16 h, 37° C. in Nunc 96-well plates. The overnight cultures were subcultured (1:25 dilution) into 10:90 and grown with shaking at 200 rpm, 2 h, 37° C. Vehicle controls consisted of 4 μL of DMSO, 144 μL 10:90 and 2 μL of subculture. Sterile controls consisted of 4 μL of DMSO and 146 μL 10:90. […]. The final volume of each well was 150 μL and each checkerboard was repeated at least three times. Plates were incubated with shaking at 200 rpm, 16 h, 37° C. and OD600 was measured (Multiskan Go—Thermo Fisher Scientific). The results were plotted as percent of control (wells containing only DMSO) using Prism (GraphPad).
Clinical isolates were grown and tested as described in Example 1. Briefly, clinical isolates were inoculated from glycerol stocks stored at −80° C. into Nunc 96-well plates and grown overnight at 37° C., for 16 h with shaking in LB (200 rpm). Overnights were subcultured (1:25) into fresh 10:90 medium and grown for 2 h under the same growth conditions. Subcultures were diluted 1:75 in fresh 10:90. Compounds were diluted 1:75 to obtain the final concentration. DOXY and CLI were added at a final concentration of 1 μg/mL, CO was used at 2 μg/mL, TRO was used at 4 μg/mL, TS was used at 8.3 μg/mL, and DSX was used at 32 μg/mL. Vehicle and sterility controls were included. Plates were incubated overnight with the same conditions. The OD600 was read (Multiscan Go—Thermo Fisher Scientific), analyzed using Excel, and the data plotted using Prism (GraphPad).
as §1

[8] = checkerboard, IC50 isobolograms, PA14, 10:90

Cc1nc(C)c(C)nc1C [2,3,5,6-tetrametylpyrazine, 2,3,5,6-Tetramethylpyrazine]
synergy with TS (P. aeruginosa PA14 [1]; [8]): None

C=C(NC(=O)C(=C)NC(=O)c1ccc2c(n1)-c1coc(n1)C(=C)NC(=O)C(=C)NC(=O)c1nc(oc1C)C(=C)NC(=O)[C@H](C(C)(C)O)NC(=O)C(=C)NC(=O)c1nc(oc1C)/C(=C/C)NC(=O)[C@H]([C@@H](C)O)NC(=O)c1csc-2n1)C(N)=O [BER, berninamycin A]
synergy with DSX (P. aeruginosa PA14 [2]): did not synergize

O=C(O)c1cn(C2CC2)c2cc(N3CCNCC3)c(F)cc2c1=O [CIP, ciprofloxacin]
synergy with DSX (P. aeruginosa PA14 [1]; PA14): No synergy | colour change upon addition of FeCl3 [3]: formed orange complexes

Cc1cc(C2CCCCC2)n(O)c(=O)c1 [CO, Ciclopirox Olamine]
decolourization of CAS agar (relative affinity for iron) [4]: greatest decolourization | mode of activity of compound alone (P. aeruginosa PA14 [5]): bacteriostatic | interaction with DSX (P. aeruginosa PA14 [1]; 2D checkerboard, PA14): indifferent | one-eighth of MIC against PA14 (test concentration) (P. aeruginosa PA14 [1]; PA14): 2 µg/mL | effect of 100 μM Fe^3+ on inhibitory activity (P. aeruginosa PA14 [1]; VAN + compound checkerboards, PA14): abrogated | synergy with TS (P. aeruginosa PA14 [1]; [8]): synergized | interaction with GN (P. aeruginosa PA14 [1]; checkerboard, PA14): antagonism | relative potency of synergy with TS (P. aeruginosa PA14 [1]; checkerboards, isobolograms and CI values, PA14): most potent synergy; also recorded: greater synergy | absorption spectrum after addition of FeCl3 [6]: showed shifts in their absorption spectra | growth of C0379, triple combinations with TS+DSX at higher concentrations of the compound [7]: could inhibit its growth

CO/N=C(\C(=O)N[C@@H]1C(=O)N2C(C(=O)O)=C(CSc3nc(=O)c(=O)[nH]n3C)CS[C@H]12)c1csc(N)n1 [Ceftriaxone, ceftriaxone]
colour change upon addition of FeCl3 [3]: turned red | absorption spectrum after addition of FeCl3 [6]: did not change

O=C(N[C@H](CO)[C@H](O)c1ccc([N+](=O)[O-])cc1)C(Cl)Cl [Chloramphenicol]
synergy with DSX (P. aeruginosa PA14 [1]; PA14): No synergy

COc1cc(/C=C/C(=O)CC(=O)/C=C/c2ccc(O)c(OC)c2)ccc1O [Curcumin]
synergy with TS (P. aeruginosa PA14 [1]; [8]): None

C[C@H]1c2cccc(O)c2C(=O)C2=C(O)[C@]3(O)C(=O)C(C(N)=O)=C(O)[C@@H](N(C)C)[C@@H]3[C@@H](O)[C@@H]21 [DOXY, Doxycycline]
one-eighth of MIC against PA14 (test concentration) (P. aeruginosa PA14 [1]; PA14): 1 µg/mL

O=[N+]([O-])[O-].O=[N+]([O-])[O-].O=[N+]([O-])[O-].[Ga+3] [GN, Gallium Nitrate]
relative potency of synergy with TS (P. aeruginosa PA14 [1]): weakest | synergy with TS (P. aeruginosa PA14 [1]): synergized

C=C(NC(=O)c1csc(-c2nc3c(cc2O)-c2nc(cs2)C(=O)NC(C(C)O)C(=O)N/C(=C\C)c2nc(cs2)C(=O)NC2CC(O)C(=O)OCc4cccc5[nH]c(c(C)c45)C(=O)SCC(NC(=O)c4csc2n4)c2nc-3cs2)n1)C(N)=O (centres unmarked) [NH, nosiheptide]
synergy with DSX (P. aeruginosa PA14 [2]): synergize

CCn1cc(C(=O)O)c(=O)c2cnc(N3CCNCC3)nc21 [Pipemidic acid]
colour change upon addition of FeCl3 [3]: formed orange complexes | absorption spectrum after addition of FeCl3 [6]: shifted

C=C(NC(=O)C(=C)NC(=O)c1csc(C2=N[C@@H]3c4csc(n4)[C@H]4NC(=O)c5csc(n5)[C@H]([C@](C)(O)[C@@H](C)O)NC(=O)[C@H]5CSC(=N5)/C(=C/C)NC(=O)[C@H]([C@@H](C)O)NC(=O)c5csc(n5)[C@]3(CC2)NC(=O)[C@H](C)NC(=O)C(=C)NC(=O)C(=C)NC(=O)[C@H](C(C)C)N[C@@H]2C=Cc3c([C@H](C)O)cc(nc3[C@H]2O)C(=O)O[C@@H]4C)n1)C(N)=O [SM, siomycin A]
synergy with DSX (P. aeruginosa PA14 [2]): synergize

C/C=C(\NC(=O)c1csc(-c2csc(-c3ccc4c(n3)-c3csc(n3)[C@H]([C@@H](C)O)NC(=O)c3csc(n3)[C@H](C(C)(C)O)NC(=O)c3csc(n3)/C(=C/C)NC(=O)[C@H]([C@@H](C)O)NC(=O)c3csc-4n3)n2)n1)C(=O)NC[C@@H](C)O [TC, thiocillin I]
synergy with DSX (P. aeruginosa PA14 [2]): synergize

COc1cc(Cc2cnc(N)nc2N)cc(OC)c1OC [Trimethoprim]
colour change upon addition of FeCl3 [3]: turned golden-yellow

O=C(O)[C@H]1O[C@@H](Oc2cc3oc(-c4ccccc4)cc(=O)c3c(O)c2O)[C@H](O)[C@@H](O)[C@@H]1O [baicalin, Baicalin]
synergy with TS (P. aeruginosa PA14 [1]; [8]): None

O=C(O[C@@H]1Cc2c(O)cc(O)cc2O[C@@H]1c1cc(O)c(O)c(O)c1)c1cc(O)c(O)c(O)c1 [epigallocatechin gallate, Epigallocatechin Gallate]
synergy with TS (P. aeruginosa PA14 [1]; [8]): None

COc1cc(/C=C/C(=O)O)ccc1O [ferulic acid, Ferulic Acid]
synergy with TS (P. aeruginosa PA14 [1]; [8]): None

O=C(CCc1ccc(O)cc1)c1c(O)cc(O)cc1O [phloretin, Phloretin]
synergy with TS (P. aeruginosa PA14 [1]; [8]): None

O=P([O-])([O-])O[C@H]1[C@H](OP(=O)([O-])O)[C@H](OP(=O)([O-])[O-])[C@H](OP(=O)([O-])O)[C@@H](OP(=O)([O-])[O-])[C@@H]1OP(=O)([O-])O.[Na+].[Na+].[Na+].[Na+].[Na+].[Na+].[Na+].[Na+].[Na+] [sodium phytate, Sodium phytate]
synergy with TS (P. aeruginosa PA14 [1]): None

NC[C@H]1O[C@H](O[C@H]2[C@H](O)[C@@H](O[C@H]3O[C@H](CO)[C@@H](O)[C@H](N)[C@H]3O)[C@H](N)C[C@@H]2N)[C@H](N)C[C@@H]1O [tobramycin]
synergy with DSX (P. aeruginosa PA14 [1]; PA14): No synergy

geninthiocin A
synergy with DSX (P. aeruginosa PA14 [2]): did not synergize

micrococcin P1 [MP]
synergy with DSX (P. aeruginosa PA14 [2]): synergize
